Experimental data taken from ChEMBL document CHEMBL1201862, “PubChem BioAssay data set” (2004).
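1) Cells in 96-well plates. 2) Compound, 48 h, 5 concentrations. 3) Linear interpolation between surrounding doses. 4) Unreached endpoint = highest concentration. The concentration for 50% growth inhibition is given as GI50.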 Calls of active or inactive are those of the source. No stated cut-off is given here; in the data, active = GI50 up to about 1.1 µM and inactive = higher.

Key:
Assay in all cases: NCI anticancer screen, dose series, 48 h
[1] = system: SK-MEL-5
[2] = system: SK-MEL-28
[3] = system: M14
[4] = system: TK-10
[5] = system: RPMI-8226
[6] = system: SF-295
[7] = system: ACHN
[8] = system: SK-OV-3
[9] = system: CCRF-CEM
[10] = system: DMS-114
[11] = system: UO-31
[12] = system: NCI-H522
[13] = system: HT-29
[14] = system: RXF 393
[15] = system: NCI/ADR-RES
[16] = system: HCC 2998
[17] = system: MDA-N
[18] = system: MDA-MB-231
[19] = system: MCF7
[20] = system: T47D

SMILES	GI50 [1]	GI50 [2]	GI50 [3]	GI50 [4]	GI50 [5]	GI50 [6]	GI50 [7]	GI50 [8]	GI50 [9]	GI50 [10]	GI50 [11]	GI50 [12]	GI50 [13]	GI50 [14]	GI50 [15]	GI50 [16]	GI50 [17]	GI50 [18]	GI50 [19]	GI50 [20]
COC(=O)C12C3C4C1C1C2C3C41C(=O)OC(C)(C)C (configuration not stated)	> 100 µM (inactive)	> 100 µM (inactive)	> 100 µM (inactive)	> 100 µM (inactive)	> 49.2 µM (inactive)	> 100 µM (inactive)	> 100 µM (inactive)	> 100 µM (inactive)	> 71.3 µM (inactive)	> 44.8 µM (inactive)	> 100 µM (inactive)	> 100 µM (inactive)	> 100 µM (inactive)	> 100 µM (inactive)	–	–	–	–	–	–
CC(C)(C)c1nc2c(o1)C(=O)c1ccccc1C2=O	0.437 µM (active)	1.95 µM (inactive)	0.759 µM (active)	5.65 µM (inactive)	1.93 µM (inactive)	1.93 µM (inactive)	2.28 µM (inactive)	4.98 µM (inactive)	1.47 µM (inactive)	2.23 µM (inactive)	2.81 µM (inactive)	1.43 µM (inactive)	3.9 µM (inactive)	2.08 µM (inactive)	0.447 µM (active)	4.25 µM (inactive)	0.199 µM (active)	0.385 µM (active)	0.485 µM (active)	0.627 µM (active)
Cc1cc2c(=O)cc(-c3ccc(C(F)(F)F)cc3)oc2c(C(=O)O)c1C	> 100 µM (inactive)	> 100 µM (inactive)	> 100 µM (inactive)	> 100 µM (inactive)	> 100 µM (inactive)	> 100 µM (inactive)	> 100 µM (inactive)	> 100 µM (inactive)	> 100 µM (inactive)	> 100 µM (inactive)	> 100 µM (inactive)	> 100 µM (inactive)	> 100 µM (inactive)	> 100 µM (inactive)	–	–	–	–	–	–
CCN(CC)CCOC(=O)Cc1cccc2c(=O)cc(-c3ccccc3)oc12	32 µM (inactive)	54 µM (inactive)	41.7 µM (inactive)	44.1 µM (inactive)	35.8 µM (inactive)	55.6 µM (inactive)	45.2 µM (inactive)	48.5 µM (inactive)	34.4 µM (inactive)	31.8 µM (inactive)	5.79 µM (inactive)	40.8 µM (inactive)	44.1 µM (inactive)	41.5 µM (inactive)	50 µM (inactive)	44.6 µM (inactive)	22.3 µM (inactive)	26.4 µM (inactive)	54.1 µM (inactive)	30.4 µM (inactive)
Cc1ccccc1C(C#N)/C(=N/NC(N)=S)C(=O)Nc1c(C)cccc1C (configuration not stated)	46.3 µM (inactive)	> 100 µM (inactive)	> 100 µM (inactive)	> 100 µM (inactive)	9.12 µM (inactive)	> 100 µM (inactive)	> 100 µM (inactive)	–	> 100 µM (inactive)	10.4 µM (inactive)	> 100 µM (inactive)	–	> 100 µM (inactive)	> 100 µM (inactive)	–	> 100 µM (inactive)	–	–	–	–
Nc1ccc(Sc2c3ccccc3nc3ccccc23)cc1	16.6 µM (inactive)	15.2 µM (inactive)	15.7 µM (inactive)	13.4 µM (inactive)	2.82 µM (inactive)	19.1 µM (inactive)	12.3 µM (inactive)	22.3 µM (inactive)	3.28 µM (inactive)	18.2 µM (inactive)	17.5 µM (inactive)	6.15 µM (inactive)	15.8 µM (inactive)	18.7 µM (inactive)	7.73 µM (inactive)	24.4 µM (inactive)	12.2 µM (inactive)	14.7 µM (inactive)	12.4 µM (inactive)	2.06 µM (inactive)
COC(=O)C(C(=O)C(=O)Nc1cccc(O)c1)c1nc2ccc(Cl)cc2nc1O (configuration not stated)	> 100 µM (inactive)	> 100 µM (inactive)	> 100 µM (inactive)	> 100 µM (inactive)	> 100 µM (inactive)	> 100 µM (inactive)	> 100 µM (inactive)	> 100 µM (inactive)	> 100 µM (inactive)	> 100 µM (inactive)	> 100 µM (inactive)	–	> 100 µM (inactive)	74.3 µM (inactive)	–	> 100 µM (inactive)	–	–	–	–
OCC(O)C(OC1OC(CO)C(O)C(O)C1O)c1nn(-c2ccc(Cl)cc2)c2nc3cc(Cl)c(Cl)cc3nc12 (configuration not stated)	–	> 100 µM (inactive)	> 100 µM (inactive)	> 100 µM (inactive)	> 100 µM (inactive)	> 100 µM (inactive)	> 100 µM (inactive)	> 100 µM (inactive)	> 100 µM (inactive)	> 100 µM (inactive)	> 100 µM (inactive)	> 100 µM (inactive)	> 100 µM (inactive)	> 100 µM (inactive)	–	> 100 µM (inactive)	–	–	–	–
Cc1cccc(C)c1NC(=O)C(=O)Cc1nc2ccccc2s1	> 100 µM (inactive)	> 100 µM (inactive)	> 100 µM (inactive)	> 100 µM (inactive)	> 100 µM (inactive)	> 100 µM (inactive)	> 100 µM (inactive)	> 100 µM (inactive)	> 100 µM (inactive)	> 100 µM (inactive)	> 100 µM (inactive)	> 100 µM (inactive)	> 100 µM (inactive)	50.9 µM (inactive)	–	> 100 µM (inactive)	–	–	–	–
C[C@]12CCC(=O)C=C1CC[C@@H]1C2CC[C@@]2(C)C1CC[C@@H]2OC(=O)C12OC1CCC2=O (some centres not stated)	16.2 µM (inactive)	17.4 µM (inactive)	18.5 µM (inactive)	20 µM (inactive)	20.9 µM (inactive)	16.7 µM (inactive)	15.6 µM (inactive)	41.7 µM (inactive)	12.2 µM (inactive)	17.7 µM (inactive)	16.5 µM (inactive)	10.7 µM (inactive)	18.9 µM (inactive)	5.16 µM (inactive)	–	20.3 µM (inactive)	–	–	–	–
COc1cc([C@@H]2c3cc4c(cc3[C@@H](NC(=O)c3cccc([N+](=O)[O-])c3)C3COC(=O)[C@@H]32)OCO4)cc(OC)c1O (some centres not stated)	0.452 µM (active)	3.27 µM (inactive)	0.621 µM (active)	2.25 µM (inactive)	0.452 µM (active)	0.245 µM (active)	0.128 µM (active)	0.329 µM (active)	0.0376 µM (active)	0.548 µM (active)	3.89 µM (inactive)	–	1.7 µM (inactive)	2.34 µM (inactive)	–	0.608 µM (active)	–	–	–	–
CC(c1ccccc1)N1CC(C)(c2ccccc2)N(O)C(c2ccccc2)C1C (configuration not stated)	7.82 µM (inactive)	4.08 µM (inactive)	–	17.1 µM (inactive)	3.75 µM (inactive)	7.85 µM (inactive)	3.59 µM (inactive)	22.8 µM (inactive)	5.66 µM (inactive)	5.33 µM (inactive)	3.23 µM (inactive)	6.4 µM (inactive)	23.4 µM (inactive)	4.41 µM (inactive)	–	11.2 µM (inactive)	–	–	–	–
COc1ccc(C(=O)C(c2ccc(OC)cc2)C2OC(=O)C(Cl)=C2Cl)cc1 (configuration not stated)	> 100 µM (inactive)	> 100 µM (inactive)	> 100 µM (inactive)	> 100 µM (inactive)	> 100 µM (inactive)	> 100 µM (inactive)	> 100 µM (inactive)	> 100 µM (inactive)	> 100 µM (inactive)	> 100 µM (inactive)	> 100 µM (inactive)	> 100 µM (inactive)	> 100 µM (inactive)	> 100 µM (inactive)	–	> 100 µM (inactive)	–	–	–	–
N=C(N)N/N=C/c1c(-c2ccc(Cl)cc2)nc2sccn12	1.65 µM (inactive)	1.85 µM (inactive)	1.63 µM (inactive)	3.01 µM (inactive)	2.61 µM (inactive)	1.64 µM (inactive)	1.5 µM (inactive)	2.66 µM (inactive)	1.79 µM (inactive)	–	2.48 µM (inactive)	1.56 µM (inactive)	1.69 µM (inactive)	1.35 µM (inactive)	5.4 µM (inactive)	1.35 µM (inactive)	1.79 µM (inactive)	2.77 µM (inactive)	1.72 µM (inactive)	1.33 µM (inactive)
C[Si](C)(C)C#CCO[Si](C)(C)C	> 100 µM (inactive)	> 75.3 µM (inactive)	> 74.8 µM (inactive)	> 100 µM (inactive)	21 µM (inactive)	> 100 µM (inactive)	> 100 µM (inactive)	> 100 µM (inactive)	5.69 µM (inactive)	–	> 100 µM (inactive)	15.9 µM (inactive)	32.9 µM (inactive)	> 100 µM (inactive)	> 100 µM (inactive)	> 100 µM (inactive)	49.8 µM (inactive)	> 50.2 µM (inactive)	> 74.8 µM (inactive)	> 70.6 µM (inactive)
Clc1ccc(OCCSCCCCCCCCCCSCCOc2ccc(Cl)cc2)cc1	> 100 µM (inactive)	> 100 µM (inactive)	–	> 100 µM (inactive)	> 100 µM (inactive)	> 100 µM (inactive)	> 100 µM (inactive)	> 100 µM (inactive)	> 100 µM (inactive)	> 100 µM (inactive)	> 100 µM (inactive)	> 100 µM (inactive)	> 100 µM (inactive)	> 100 µM (inactive)	–	> 100 µM (inactive)	–	–	–	–
c1ccc(C2[C@@H]3CCCc4ccccc4C3=NN2c2ccccc2)cc1 (some centres not stated)	18.8 µM (inactive)	> 100 µM (inactive)	–	> 100 µM (inactive)	40.7 µM (inactive)	> 100 µM (inactive)	> 100 µM (inactive)	–	87.7 µM (inactive)	> 100 µM (inactive)	> 100 µM (inactive)	35 µM (inactive)	61.7 µM (inactive)	92.3 µM (inactive)	–	> 100 µM (inactive)	–	–	–	–
